Results published in publication PMC9574863 (Journal of Medicinal Chemistry, 2022).
Like-named read-outs stand apart in the source and are kept apart here.

What was measured:
U937 cells [1] = settings: read-out: apoptosis EC50 U937 (C.L. 95%); U937, annexin V, 3 days
U937 cells [2] = settings: read-out: differentiation EC50 U937 (C.L. 95%); U937, CD14/CD11b expression
Source text: The differentiation pathway was monitored by analyzing the expression of CD11b (APC-conjugated BD Bioscience San Jose, CA, USA) or CD14 (APC-conjugated Beckam Coulter CA, USA) via flow cytometry analysis. […] Samples were acquired on an FACSVerse (BD-Biosciences San Jose CA) and dead cells were excluded from the analyses, according to the use of propidium iodide (Sigma-Aldrich, Milan, Italy). Data were processed using Kaluza software version 1.2 (Beckman Coulter Fullerton, CA).

[3] = pH 7; cited from earlier work

SMILES	EC50 (U937 cells [1]) [nM]	EC50 (U937 cells [2]) [nM]	solubility [3] [µM]
Cc1c(-c2ccc(-c3ccccc3F)cc2)nc2ccc(F)cc2c1C(=O)O [Brequinar]	262	214	–
CCn1c(CO)nn(-c2cc(O[C@@H](C)C(F)(F)F)c(C(=O)Nc3c(F)cccc3Cl)cc2F)c1=O [BAY2402234]	–	–	< 4
